# According to patent US20240207192A1, “PHARMACEUTICAL COMPOSITIONS CONTAINING A PIPERIDINYL-METHYL-PURINE AMINE AND THEIR USE IN TREATING DISEASES AND CONDITIONS” (K36 THERAPEUTICS, INC., priority 2022, published 2024):
# Counter-ions that a name gives are not always drawn.
# Key:
# Format in all cases: physicochemical
# [1] = Storage stability of Formulations 8, 9 and 10, related substances
# Experimental: An aliquot of each of Formulation 8, 9, and 10 was subjected to stability testing. In particular, an amount of each formulation sufficient to provide 14.3 mg of Compound 2 was transferred to a glass vial and then the vial was capped. The glass vials were stored at (a) 40° C./NMT 25% relative humidity or (b) 40° C./75% relative humidity. Samples were analyzed to determine the amount of related substances in the formulation.
# (§1) Table 2 presents results for samples stored at 40° C./25% relative humidity. Table 3 presents results for samples stored at 40° C./75% relative humidity.
# [2] = Storage stability of Formulations 1 to 4, related substances by HPLC; settings: 40° C./75% relative humidity, capped glass vials
# Experimental: An aliquot of each of Formulation 1, 2, 3, and 4 was subjected to stability testing. In particular, an amount of each formulation sufficient to provide 11.4 mg of Compound 1 was transferred to glass vials and then the vials were capped. The glass vials were stored at 40° C./75% relative humidity for three to six weeks. Samples were analyzed by HPLC to determine the amount of related substances in the formulation.
# [3] = Storage stability of Formulations 5, 6 and 7, related substances by HPLC
# Experimental: An aliquot of each of Formulation 5, 6, and 7 was subjected to stability testing. In particular, an amount of each formulation sufficient to provide 11.4 mg of Compound 1 was transferred to a glass vial bottle and then the bottle was capped. The glass vials were stored at (a) 40° C./NMT 25% relative humidity or (b) 40° C./75% relative humidity. Samples were analyzed by HPLC to determine the amount of related substances in the formulation.
# as §1
# [4] = 40° C./25% (NMT 25%) relative humidity
Structure (SMILES),"Percentage of Related Substances in the Formulation (% as determined by HPLC), 2 Weeks Storage [1, 4]","Percentage of Related Substances in the Formulation (% as determined by HPLC), 4 Weeks Storage [1, 4]","Percentage of Related Substances in the Formulation (% as determined by HPLC), 6 Weeks Storage [1, 4]","Percentage of Related Substances in the Formulation (% as determined by HPLC), 2 Weeks Storage ([1]; 40° C./75% relative humidity)","Percentage of Related Substances in the Formulation (% as determined by HPLC), 4 Weeks Storage ([1]; 40° C./75% relative humidity)","Percentage of Related Substances in the Formulation (% as determined by HPLC), 6 Weeks Storage ([1]; 40° C./75% relative humidity)","Percentage of Related Substances in the Formulation (% as Determined by HPLC), 3 Weeks Storage ([2]; 3 weeks)","Percentage of Related Substances in the Formulation (% as determined by HPLC), 6 Weeks Storage ([2]; 6 weeks)","Percentage of Related Substances in the Formulation (% as determined by HPLC), 2 Weeks Storage [3, 4]","Percentage of Related Substances in the Formulation (% as determined by HPLC), 4 Weeks Storage ([3]; 40° C./25% (NMT 25%) relative humidity, 4 weeks)","Percentage of Related Substances in the Formulation (% as determined by HPLC), 2 Weeks Storage ([3]; 40° C./75% relative humidity)","Percentage of Related Substances in the Formulation (% as determined by HPLC), 6 Weeks Storage ([3]; 40° C./75% relative humidity, 6 weeks)"
"COc1cc(F)c(-c2cc(Cn3cnc4c(N)ncnc43)c(N3CCC[C@](N)([C@H](O)C(F)F)C3)cn2)cc1F [Compound 2, (S)-1-((R)-3-amino-1-(4-((6-amino-9H-purin-9-yl)methyl)-6-(2,5-difluoro-4-methoxyphenyl)pyridin-3-yl)piperidin-3-yl)-2,2-difluoroethan-1-ol Fumarate]",0.55%,0.55%,0.56%,0.55%,0.56%,0.55%,–,–,–,–,–,–
"COc1cc(F)c(-c2cc(Cn3cnc4c(N)ncnc43)c(N3CCC[C@](N)([C@H](O)C(F)F)C3)cn2)cc1F [Compound 1, (S)-1-((R)-3-amino-1-(4-((6-amino-9H-purin-9-yl)methyl)-6-(2,5-difluoro-4-methoxyphenyl)pyridin-3-yl)piperidin-3-yl)-2,2-difluoroethan-1-ol D-Tartrate]",–,–,–,–,–,–,0.42%,0.41%,0.56%,0.57%,0.57%,0.57%
